Results from patent US10105357B2, “Indication of antibiotic drugs for preparation of cancer inhibition pharmaceutical composition” (LAUNX BIOMEDICAL CO., LTD., priority 2014, dated 2018).
Like-named read-outs stand apart in the source and are kept apart here.

Key:
Format in all cases: cell-based, human
[1] = test system: LoVo (Colorectal Adenocarcinoma); experiment: Cell viability analysis, colon cancer LoVo; settings: Homo sapiens, LoVo, 72 h
[2] = test system: HL-60 (Acute Promyelocytic Leukemia); experiment: Cell viability analysis, leukemia HL-60; settings: Homo sapiens, HL-60, 72 h
[3] = test system: A549 (Lung Adenocarcinoma); experiment: Cell viability analysis, lung cancer A549; settings: Homo sapiens, A549, 72 h
[4] = test system: HepG2 (Hepatocellular Carcinoma); experiment: Cell viability analysis, hepatic cancer HepG2; settings: Homo sapiens, HepG2, 72 h
[5] = test system: AGS (Gastric Adenocarcinoma); experiment: Cell viability analysis, gastric cancer AGS; settings: Homo sapiens, 72 h
[6] = test system: HeLa (Cervix Adenocarcinoma); experiment: Cell viability analysis, cervical cancer HeLa; settings: Homo sapiens, HeLa, 72 h
[7] = test system: PC3 (p53−) (Prostate Adenocarcinoma); experiment: Cell viability analysis, prostate cancer PC3; settings: Homo sapiens, 72 h
cancer cell lines = experiment: Cell viability analysis (WST-1) on cancer cell lines; settings: drug 10 μM, 72 hours, WST-1; Table 3
[8] = test system: TSGH-8301 (Urinary Bladder Carcinoma); experiment: Cell viability analysis, bladder cancer TSGH-8301; settings: Homo sapiens, 72 h
[9] = test system: A375 (Amelanotic Melanoma); experiment: Cell viability analysis, skin cancer A375; settings: Homo sapiens, A-375, 72 h
[10] = test system: MCF7 (Mammary Gland, Adenocarcinoma); experiment: Cell viability analysis, breast cancer MCF7; settings: Homo sapiens, MCF7, 72 h
[11] = test system: HI650 (Lung Adenocarcinoma); experiment: Cell viability analysis, lung cancer HI650; settings: Homo sapiens, NCI-H1650, 72 h
[12] = test system: MKN-45 (Gastric Adenocarcinoma); experiment: Cell viability analysis, gastric cancer MKN-45; settings: Homo sapiens, MKN-45, 72 h
[13] = read-out: cell viability (survival rate), LoVo, drug 10 μM, 72 hours, WST-1, OD450 nm
[14] = read-out: cell viability (survival rate), HL-60, drug 10 μM, 72 hours, WST-1, OD450 nm
[15] = read-out: cell viability (survival rate), A549, drug 10 μM, 72 hours, WST-1, OD450 nm
[16] = read-out: cell viability (survival rate), HepG2, drug 10 μM, 72 hours, WST-1, OD450 nm
[17] = read-out: cell viability (survival rate), AGS, drug 10 μM, 72 hours, WST-1, OD450 nm
[18] = read-out: cell viability (survival rate), HeLa, drug 10 μM, 72 hours, WST-1, OD450 nm
[19] = read-out: cell viability (survival rate), PC3, drug 10 μM, 72 hours, WST-1, OD450 nm
[20] = read-out: cell viability (survival rate), TSGH, drug 10 μM, 72 hours, WST-1, OD450 nm
[21] = read-out: cell viability (survival rate), A375, drug 10 μM, 72 hours, WST-1, OD450 nm
[22] = read-out: cell viability (survival rate), MCF7, drug 10 μM, 72 hours, WST-1, OD450 nm
[23] = read-out: cell viability (survival rate), H1650, drug 10 μM, 72 hours, WST-1, OD450 nm
[24] = read-out: cell viability (survival rate), MKN-45, drug 10 μM, 72 hours, WST-1, OD450 nm
[25] = drug 10 μM, 72 hours, WST-1, OD450 nm, read-out: cell viability (survival rate), HL-60
[26] = drug 10 μM, 72 hours, WST-1, OD450 nm, read-out: cell viability (survival rate), A549
[27] = drug 10 μM, 72 hours, WST-1, OD450 nm, read-out: cell viability (survival rate), HepG2
[28] = drug 10 μM, 72 hours, WST-1, OD450 nm, read-out: cell viability (survival rate), AGS
[29] = drug 10 μM, 72 hours, WST-1, OD450 nm, read-out: cell viability (survival rate), HeLa
[30] = drug 10 μM, 72 hours, WST-1, OD450 nm, read-out: cell viability (survival rate), PC3
[31] = drug 10 μM, 72 hours, WST-1, OD450 nm, read-out: cell viability (survival rate), TSGH
[32] = drug 10 μM, 72 hours, WST-1, OD450 nm, read-out: cell viability (survival rate), A375
[33] = drug 10 μM, 72 hours, WST-1, OD450 nm, read-out: cell viability (survival rate), MCF7
[34] = drug 10 μM, 72 hours, WST-1, OD450 nm, read-out: cell viability (survival rate), H1650
[35] = drug 10 μM, 72 hours, WST-1, OD450 nm, read-out: cell viability (survival rate), MKN-45

Row | SMILES | viability at 10 µM [1, 13] [%] | viability at 10 µM [2, 14] [%] | viability at 10 µM [3, 15] [%] | viability at 10 µM [4, 16] [%] | viability at 10 µM [5, 17] [%] | viability at 10 µM [6, 18] [%] | viability at 10 µM [7, 19] [%] | inhibition effect on different cancer cell lines (cancer cell lines) | viability at 10 µM [8, 20] [%] | viability at 10 µM [9, 21] [%] | viability at 10 µM [10, 22] [%] | viability at 10 µM [11, 23] [%] | viability at 10 µM [12, 24] [%] | viability at 10 µM [2, 25] [%] | viability at 10 µM [3, 26] [%] | viability at 10 µM [4, 27] [%] | viability at 10 µM [5, 28] [%] | viability at 10 µM [6, 29] [%] | viability at 10 µM [7, 30] [%] | viability at 10 µM [8, 31] [%] | other results
1 | CN(C)c1ccc(C(=C2C=CC(=[N+](C)C)C=C2)c2ccc(N(C)C)cc2)cc1 [Crystal violet] | 62.3 | 37.3 | 37.5 | 70.3 | 52.7 | 38.9 | 31.8 | significant inhibition effect | 44.1 | 32 | 46 | 68.5 | 44.8 | – | – | – | – | – | – | – | –
2 | CC(C)(C)c1nc(-c2cccc(NS(=O)(=O)c3c(F)cccc3F)c2F)c(-c2ccnc(N)n2)s1 [Dabrafenib (GSK2118436), Dabrafenib] | 70.5 | – | – | – | – | – | – | significant inhibition effect | – | – | – | – | – | 72.9 | 134 | 91.3 | 90.1 | 78.5 | 100 | 90.5 | viability at 10 µM [9, 32]: 42.1%; viability at 10 µM [10, 33]: 94.1%; viability at 10 µM [11, 34]: 73.6%; viability at 10 µM [12, 35]: 98.7%
3 | CCCCCCCCCC(=O)N[C@@H](Cc1c[nH]c2ccccc12)C(=O)N[C@H](CC(N)=O)C(=O)N[C@@H](CC(=O)O)C(=O)N[C@@H]1C(=O)NCC(=O)N[C@@H](CCCN)C(=O)N[C@@H](CC(=O)O)C(=O)N[C@H](C)C(=O)N[C@@H](CC(=O)O)C(=O)NCC(=O)N[C@H](CO)C(=O)N[C@@H]([C@H](C)CC(=O)O)C(=O)N[C@@H](CC(=O)c2ccccc2N)C(=O)O[C@@H]1C [Daptomycin] | 90.9 | 108 | 74 | 95.9 | 63 | 114 | 79.7 | significant inhibition effect | 56.8 | 81.2 | 85.3 | 76.3 | 92.1 | – | – | – | – | – | – | – | –
4 | NC(=O)C(c1ccccc1)(c1ccccc1)[C@@H]1CCN(CCc2ccc3c(c2)CCO3)C1 [Darifenacin HBr] | – | – | – | – | – | – | – | significant inhibition effect | – | – | – | – | – | 78.2 | 100 | 81.6 | 80.4 | 87.7 | 86.1 | 99.8 | viability at 10 µM ([1]; drug 10 μM, 72 hours, WST-1, OD450 nm, read-out: cell viability (survival rate), LoVo): 93.5%; viability at 10 µM [9, 32]: 60.5%; viability at 10 µM [10, 33]: 59.7%; viability at 10 µM [11, 34]: 126%; viability at 10 µM [12, 35]: 82.4%
5 | N#CC(c1ccc(Cl)cc1)c1c(Cl)cc(-n2ncc(=O)[nH]c2=O)cc1Cl (stereo not drawn) [Diclazuril] | 78.4 | – | – | – | – | – | – | significant inhibition effect | – | – | – | – | – | 70.2 | 42.7 | 99.3 | 76.3 | 76.1 | 95.5 | 103 | viability at 10 µM [9, 32]: 84.5%; viability at 10 µM [10, 33]: 40.4%; viability at 10 µM [11, 34]: 104%; viability at 10 µM [12, 35]: 97.9%
6 | O=C(O)Cc1ccccc1Nc1c(Cl)cccc1Cl [Diclofenac Potassium] | 85 | 96.3 | 81.7 | 107 | 91.4 | 76.1 | 63.3 | significant inhibition effect | 122 | 51.5 | 76.3 | 43.9 | 40.5 | – | – | – | – | – | – | – | –
7 | Cc1onc(-c2c(Cl)cccc2Cl)c1C(=O)N[C@@H]1C(=O)N2[C@@H]1SC(C)(C)[C@@H]2C(=O)O [Dicloxacillin Sodium] | 92.4 | 72.7 | 61.8 | 102 | 147 | 60.1 | 71.1 | significant inhibition effect | 84.3 | 79 | 45.3 | 68.4 | 66.4 | – | – | – | – | – | – | – | –
8 | CCCCCCCCCCCCCCCCCCCCCCO [Docosanol (Abreva), Docosanol] | 89.4 | – | – | – | – | – | – | significant inhibition effect | – | – | – | – | – | 116 | 44 | 83.6 | 40.6 | 76.9 | 70.2 | 54.8 | viability at 10 µM [9, 32]: 84.6%; viability at 10 µM [10, 33]: 39.1%; viability at 10 µM [11, 34]: 69.3%; viability at 10 µM [12, 35]: 52.4%
9 | CCCCCCCCCCCC[N+](C)(C)CCOc1ccccc1 [Domiphen Bromide] | 48.7 | – | – | – | – | – | – | significant inhibition effect | – | – | – | – | – | 30 | 28.7 | 62.1 | 32.5 | 38 | 38.9 | 37.3 | viability at 10 µM [9, 32]: 36.3%; viability at 10 µM [10, 33]: 31.3%; viability at 10 µM [11, 34]: 46.5%; viability at 10 µM [12, 35]: 44.4%
10 | Nc1nc(=O)n([C@@H]2CS[C@H](CO)O2)cc1F [Emtricitabine (Emtriva), Emtricitabine] | 82.6 | 119 | 86.9 | 110 | 48 | 79.6 | 77.1 | significant inhibition effect | 85.3 | 84 | 74 | 61 | 62.8 | – | – | – | – | – | – | – | –
11 | CCn1cc(C(=O)O)c(=O)c2cc(F)c(N3CCNCC3)nc21 [Enoxacin (Penetrex), Enoxacin] | 83.8 | – | – | – | – | – | – | significant inhibition effect | – | – | – | – | – | 108 | 45.8 | 88.1 | 111 | 68.5 | 112 | 90.4 | viability at 10 µM [9, 32]: 66.9%; viability at 10 µM [10, 33]: 44.5%; viability at 10 µM [11, 34]: 92.3%; viability at 10 µM [12, 35]: 54.3%
12 | CCN1CCN(c2cc3c(cc2F)c(=O)c(C(=O)O)cn3C2CC2)CC1 [Enrofloxacin] | 84.8 | 86.6 | 67.5 | 77.2 | 94.5 | 67 | 48.6 | significant inhibition effect | 77.9 | 65.2 | 66.6 | 44.5 | 37.4 | – | – | – | – | – | – | – | –
